Assay results reported in US20090291983A1, “3-Oxoisoindoline-1-Carboxamide Derivatives as Analgesic Agents” (AstraZeneca AB, priority 2006, published 2009).

Biological target: T1, voltage-gated sodium channel of interest (NaV1.7) (Homo sapiens, UniProt Q15858)
T1 construct: Gene(s) encoding the full-length protein of the voltage-gated sodium channel of interest are cloned and expressed; expressed in transfected cells
Test: Whole-cell voltage clamp electrophysiology assay (automated patch-clamp)
Format: cell-based
Details: cells stably expressing the voltage-gated sodium channel
Description: Gene(s) encoding the full-length protein of the voltage-gated sodium channel of interest are cloned and expressed under a suitable promoter in a suitable cell line, as well known in the art. The so constructed stable cell lines are used in screening assays to identify suitable compounds active on voltage-gated sodium channels. Suitable screening assays are as follows.
Electrophysiological recordings of sodium currents in cells stably expressing the voltage-gated sodium channel of interest confirms activity and provides a functional measure of the potency of compounds that specifically affect such channels.
Electrophysiological studies was performed using automated patch-clamp electrophysiology platforms, like IonWorks HT, IonWorks Quattro, PatchXpress, or any other suitable platform. The cell line expressing the voltage-gated sodium channel of interest was plated in appropriate well tissue plates, as provided by the manufacturer of the automated patch-clamp platforms. Suitable extracellular and intracellular buffer for such experiments was applied according to the instructions given by the manufacturer of the automated patch-clamp platforms. Cells that express the voltage-gated sodium channel protein of interest was exposed to drugs through the pipetting system integrated in the platforms. A suitable voltage stimulus protocol was used to activate the voltage-gated sodium channel proteins of interest. A suitable stimulus protocol consisted of eight voltage pulses, each to −20 mV and 50 ms in length, and separated from each other by 330 ms intervals at a potential of −90 mV, or −65 mV.
Electrophysiological studies can also be performed using the whole cell configuration of the standard patch clamp technique as described in the literature (26). In this assay, cells that express the human voltage-gated sodium channel protein of interest are exposed to the drugs by conventional microperfusion systems and a suitable voltage stimulus protocol is used to activate the voltage-gated sodium channels.

T1 sequence (Q15858 whole entry): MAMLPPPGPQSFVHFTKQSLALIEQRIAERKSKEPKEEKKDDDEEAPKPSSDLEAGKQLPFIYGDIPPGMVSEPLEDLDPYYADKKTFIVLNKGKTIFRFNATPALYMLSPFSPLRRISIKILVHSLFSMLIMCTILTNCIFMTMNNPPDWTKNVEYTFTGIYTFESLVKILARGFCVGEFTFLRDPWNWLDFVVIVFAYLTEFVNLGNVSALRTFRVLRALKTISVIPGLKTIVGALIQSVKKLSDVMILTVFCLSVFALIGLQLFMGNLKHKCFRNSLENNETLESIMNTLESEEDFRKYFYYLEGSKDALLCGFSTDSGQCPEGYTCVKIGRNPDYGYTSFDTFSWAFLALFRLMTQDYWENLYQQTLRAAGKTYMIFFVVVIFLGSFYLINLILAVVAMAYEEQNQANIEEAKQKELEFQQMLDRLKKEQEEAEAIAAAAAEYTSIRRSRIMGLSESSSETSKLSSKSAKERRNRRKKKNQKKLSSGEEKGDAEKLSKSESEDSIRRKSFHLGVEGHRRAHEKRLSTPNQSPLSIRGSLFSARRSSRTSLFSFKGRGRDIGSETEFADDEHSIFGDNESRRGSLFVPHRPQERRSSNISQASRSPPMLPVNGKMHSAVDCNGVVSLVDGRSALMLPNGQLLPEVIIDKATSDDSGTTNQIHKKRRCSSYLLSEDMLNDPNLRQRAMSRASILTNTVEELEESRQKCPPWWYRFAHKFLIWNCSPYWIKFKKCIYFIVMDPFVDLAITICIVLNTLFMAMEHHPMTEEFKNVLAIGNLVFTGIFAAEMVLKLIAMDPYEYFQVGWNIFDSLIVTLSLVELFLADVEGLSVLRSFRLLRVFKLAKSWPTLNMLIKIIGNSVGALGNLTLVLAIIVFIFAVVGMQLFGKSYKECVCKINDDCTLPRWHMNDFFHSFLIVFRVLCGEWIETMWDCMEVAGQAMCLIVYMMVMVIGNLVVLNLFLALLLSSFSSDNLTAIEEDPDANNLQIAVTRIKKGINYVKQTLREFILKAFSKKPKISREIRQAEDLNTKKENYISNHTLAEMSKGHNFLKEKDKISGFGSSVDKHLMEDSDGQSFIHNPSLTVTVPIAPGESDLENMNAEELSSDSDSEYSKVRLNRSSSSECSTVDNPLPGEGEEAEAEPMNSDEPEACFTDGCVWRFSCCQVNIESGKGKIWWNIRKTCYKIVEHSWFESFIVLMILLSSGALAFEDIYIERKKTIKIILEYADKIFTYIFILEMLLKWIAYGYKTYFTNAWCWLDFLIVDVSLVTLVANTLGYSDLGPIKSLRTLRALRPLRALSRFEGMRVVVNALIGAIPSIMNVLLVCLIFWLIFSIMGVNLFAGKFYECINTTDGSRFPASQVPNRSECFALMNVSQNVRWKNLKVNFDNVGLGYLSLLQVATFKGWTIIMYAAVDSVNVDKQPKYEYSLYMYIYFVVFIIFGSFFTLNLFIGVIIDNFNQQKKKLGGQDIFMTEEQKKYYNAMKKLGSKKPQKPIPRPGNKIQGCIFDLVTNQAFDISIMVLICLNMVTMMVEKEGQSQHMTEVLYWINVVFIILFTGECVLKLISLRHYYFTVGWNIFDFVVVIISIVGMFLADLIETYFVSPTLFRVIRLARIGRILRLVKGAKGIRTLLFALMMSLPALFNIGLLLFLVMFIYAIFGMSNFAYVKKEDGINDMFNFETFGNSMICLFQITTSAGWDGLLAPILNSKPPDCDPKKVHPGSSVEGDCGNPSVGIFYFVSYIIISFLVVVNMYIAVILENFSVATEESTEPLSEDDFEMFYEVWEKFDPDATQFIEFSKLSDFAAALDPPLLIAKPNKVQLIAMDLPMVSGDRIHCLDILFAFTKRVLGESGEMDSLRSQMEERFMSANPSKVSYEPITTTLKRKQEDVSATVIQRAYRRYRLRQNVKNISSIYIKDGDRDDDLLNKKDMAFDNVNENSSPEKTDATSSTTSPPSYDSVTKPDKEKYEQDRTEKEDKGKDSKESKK

| IC50 [nM] | SMILES |
| --- | --- |
| 316 | COc1ccccc1CN1C(=O)c2ccccc2C1C(=O)Nc1c(C)cccc1Cl (stereo not shown) [Example 2, N-(2-chloro-6-methylphenyl)-2-(2-methoxybenzyl)-3-oxoisoindoline-1-carboxamide] |
| 200 | Cc1cccc(C)c1NC(=O)C1c2ccccc2C(=O)N1CCOc1cc(C(F)(F)F)ccc1F (stereo not shown) [Example 15, N-(2,6-dimethylphenyl)-2-{2-[2-fluoro-5-(trifluoromethyl)phenoxy]ethyl}-3-oxoisoindoline-1-carboxamide] |
| 251 | COc1ccccc1CN1C(=O)c2ccccc2C1C(=O)Nc1c(Cl)cccc1Cl (stereo not shown) [Example 16, N-(2,6-dichlorophenyl)-2-(2-methoxybenzyl)-3-oxoisoindoline-1-carboxamide] |
| 100 | COc1cc(F)ccc1CN1C(=O)c2ccccc2C1C(=O)Nc1c(C)cccc1C (stereo not shown) [Example 38, N-(2,6-dimethylphenyl)-2-(4-fluoro-2-methoxybenzyl)-3-oxoisoindoline-1-carboxamide] |
